Results reported in US10752612B2, “PLK4 inhibitors” (LUDWIG INSTITUTE FOR CANCER RESEARCH LTD, priority 2015, dated 2020).
Entries after “also recorded” stand apart in the source; their conditions may differ.

How the values were obtained:
RPE1 cells = test: Analysis of mitosis and daughter cell fate, RPE1; format: cell-based, human; conditions: RPE1, only mitotic events with clear missegregation, FIG. 18B
Procedure: Analysis of mitosis and daughter cell fate. […] Cells were seeded into 96-well cycloolefin plates at 5000 cells/well, 8-10 hours before imaging. Movies were acquired on the CV1000 with a 40×0.95 NA U-PlanApo objective. The imaging chamber was maintained at 37° C. and 5% CO2. Image acquisition and data analysis were performed using CellVoyager software. 20 fields/well were imaged. For HeLa and NIH/3T3 cells, 5×2 μm z-sections in the GFP (25% power, 125 ms, 30% gain) and RFP (25% power, 100 ms, 30% gain) channels were captured in each field, at 5-minute intervals for 24 hours. For RPE1 cells, 5×2 μm z-sections in the GFP (20% power, 100 ms, 30% gain) and RFP (25% power, 100 ms, 30% gain) channels were captured in each field, at 5-minute intervals for 8 hours. To track RPE1 daughter cell fate, imaging was then switched to 3×4 μm z-sections in the RFP channel only, at 10-minute intervals for 48 hours. Mitosis was measured from nuclear envelope breakdown to anaphase onset (or arrest). Results represent combined measurements of 100 mother cells per condition from 2-4 independent experiments.
To study the correlation between mother cell prometaphase duration and daughter cell fate, RPE1 cells co-expressing centrin-GFP and H2B-RFP were seeded into 96-well cycloolefin plates at 5000 cells/well, 8-10 hours before imaging. Cells were treated with 80 nM nocodazole and immediately imaged on the CV1000 system with a 40×0.95 NA U-PlanApo objective. The imaging chamber was maintained at 37° C. and 5% CO2. 20 fields/well were imaged. 5×2 Lm z-sections in the GFP (20% power, 100 ms, 30% gain) and RFP (25% power, 100 ms, 30% gain) channels were captured in each field, at 5-minute intervals for 6 hours. The plate was then removed from the microscope, and wells were washed 6 times with warm medium. The plate was returned to the microscope, and imaging was resumed, capturing 3×4 Lm z-sections in the RFP channel only, at 10-minute intervals for 50 hours. To study the effect of chromosome missegregation on daughter cell fate, cells were treated with 1 LM NMS-P715 to inhibit the spindle assembly checkpoint kinase Mps1, then imaged as described above. Only mitotic events with clear missegregation (lagging chromosomes and subsequent formation of daughter cells with micronuclei) were analyzed. For both experiments, results represent combined measurements of 100 mother cells from 2 independent experiments.

HeLa cells = test: Quantification of centrosome numbers from fixed samples, HeLa; format: cell-based, human; conditions: HeLa, 50 or 100 nM
Procedure: Quantification of centrosome numbers from fixed samples. Cells were seeded onto poly-D-lysine-coated coverslips (Neuvitro) in 12-well plates at least 8 hours before fixation. At the required timepoints for each experiment, cells were washed once with PBS and fixed in 100% methanol (−20° C., 5 minutes). Fixed cells were washed with PBS, blocked with PBS+4% BSA+0.1% Triton X-100, and stained with primary antibodies against γ-tubulin and Cep192, which localize to the pericentriolar material and proximal to the outer centriole wall, respectively (47, 48). Alexa488-labeled anti-mouse secondary antibody (against anti-γ-tubulin) and Alexa647-labeled anti-rabbit secondary antibody (against anti-Cep192) were both used at 1.5 jag/mL. Samples were mounted onto slides with Prolong Gold antifade reagent (Life Technologies). Images of fixed interphase cells were acquired on a Nikon Eclipse E800 with a 60×1.4 NA PlanApo objective and ORCA-ER camera (Hamamatsu) using Metamorph software (Molecular Devices). Quantification of foci was performed manually. A focus was defined as a bona-fide centrosome if it was positive for both γ-tubulin and Cep192 (true for >95% of foci).

[1] = system: full-length mouse Plk4-YFP; test: Plk4 stabilization assay, Plk4-YFP DLD-1 cells; format: cell-based, human; conditions: 250 nM, 24 hours
Procedure: Plk4 stabilization assay. Expression was induced in Plk4-YFP DLD-1 cells using 1 μg/ml doxycycline. At the same time, cells were treated with the indicated concentrations of compounds. Cells were incubated for 24 hours before harvesting for Western blotting (see below).
Western blotting. […] Cell extracts were stored at −80° C. until use.

[2] = biological target: T1, human Plk4 kinase domain (aa 2-275) (Homo sapiens, UniProt O00444); test: Plk4 kinase assay (ADP-Glo); format: biochemical; conditions: Table 1
T1 construct: purified 6×His-tagged human Plk4 kinase domain (aa 2-275); 6xHis; made in house; host or cells: E. coli
T1 sequence (O00444 2-275): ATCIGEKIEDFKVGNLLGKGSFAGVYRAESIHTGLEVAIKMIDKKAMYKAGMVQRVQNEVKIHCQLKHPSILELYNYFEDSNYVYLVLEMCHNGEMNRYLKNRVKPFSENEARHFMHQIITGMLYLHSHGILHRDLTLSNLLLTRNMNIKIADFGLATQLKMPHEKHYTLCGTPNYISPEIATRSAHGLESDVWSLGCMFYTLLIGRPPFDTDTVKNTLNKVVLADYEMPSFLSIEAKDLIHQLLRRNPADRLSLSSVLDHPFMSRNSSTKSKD
Summary of the method: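 Enzyme at 2.5-10 nM final, pH 8.0, reacted 4-16 hours at 25° C; ADP generation read by ADP-Glo luminescence. Ki derived from IC50 by Cheng-Prusoff or, for tight binders, Copeland formalism.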

IC50 [2] | Structure (SMILES) | also measured
– | CCc1cccc(CC)c1NC(=O)c1nn(C)c2c1CCc1cnc(Nc3ccc(C(=O)NC4CCN(C)CC4)cc3OC(F)(F)F)nc1-2 [NMS-P715] | percentage of daughters not dividing within 48 hours (RPE1 cells): 11.4%
– | COc1ccc2c(c1)[C@]1(C[C@H]1c1ccc3c(/C=C/c4ccc(CN5C[C@@H](C)O[C@@H](C)C5)cc4)n[nH]c3c1)C(=O)N2 (relative stereo) [CFI-400945, (1R,2S).2-(3-((E).4-(((cis).2,6-dimethylmorpholino)methyl)styryl). 1H.indazol-6-yl)-5′-methoxyspiro[cyclopropane-1,3′-indolin]-2′-one, reference compound] | nuclear morphology and division (HeLa cells): become grossly multinuclear; effect on centrosome number (HeLa cells; 3 days): causes centrosome amplification; also recorded: does not deplete centrioles from cells; also recorded: induces centrosome amplification; Plk4-YFP stabilization [1]: only slight Plk4-YFP stabilization
0.1 to 1 µM | CCOc1c(Nc2cc(C)[nH]n2)nc(SC)nc1N1CCCCC1 | –
0.1 to 1 µM | CCOc1c(Nc2cc(C)[nH]n2)nc(Sc2ccc(NC(=O)C3CCCC3)cc2)nc1N1CCN(CCOC)CC1 | –
< 1 µM | COc1c(Nc2cc(C)[nH]n2)nc(Sc2ccc(NC(=O)C3CCCC3)cc2)nc1N1CCN(C)CC1 | –
< 1 µM | COc1c(C)nc(Sc2ccc(NC(=O)C3CC3)cc2)nc1Nc1cc(C)[nH]n1 | –
< 1 µM | CCS(=O)(=O)c1ccc(Sc2nc(Nc3cc(C)[nH]n3)c(OC)c(N3CCN(CCN(C)C)CC3)n2)c(Cl)c1 | –
< 1 µM | COc1c(Nc2cc(C)[nH]n2)nc(Sc2ccc(NC(C)=O)cc2)nc1N1CCN(CCN(C)Cc2ccccc2)CC1 | –
< 1 µM | COc1c(Nc2cc(C)[nH]n2)nc(Sc2ccc(S(=O)(=O)Cc3cccc(Cl)c3F)cc2F)nc1N1CCOCC1 | –
< 1 µM | Cc1cc(Nc2nc(Sc3ccc([N+](=O)[O-])cc3)nc3c2CCC32CCN(CCN(C)C)CC2)n[nH]1 | –
< 1 µM | COc1c(Nc2cc(C)[nH]n2)nc(Sc2ccc(S(=O)(=O)Cc3cccc(C(N)=O)c3F)cc2F)nc1N1CCOCC1 | –
< 1 µM | COc1c(Nc2cc(C)[nH]n2)nc(Sc2ccc(S(=O)(=O)C3(c4cccc([N+](=O)[O-])c4F)CC3)cc2F)nc1N1CCC(CN(C)C)CC1 | –
< 1 µM | CCS(=O)(=O)c1ccc(Sc2nc(Nc3cc(C)[nH]n3)c(OC)c(N3CCC(CCN(C)C)CC3)n2)c(F)c1 | –
< 1 µM | COc1c(Nc2cc(C)[nH]n2)nc(Sc2ccc(NC(=O)C3CC3)cc2)nc1NC(C)C | –
0.1 to 1 µM | CCOc1c(Nc2cc(C)[nH]n2)nc(Sc2ccc(NC(C)=O)cc2)nc1N(C)CC | –
0.1 to 1 µM | COCCN(C)c1nc(Sc2ccc(NC(=O)C3CCCC3)cc2)nc(Nc2cc(C)[nH]n2)c1OC | –

IC50 [2] | Structure (SMILES) | also measured
< 1 µM | COc1c(Nc2cc(C)[nH]n2)nc(Sc2ccc(S(=O)(=O)C(C)(C)c3cccc(Cl)c3F)cc2F)nc1N1CCOCC1 | –
< 1 µM | COc1c(Nc2cc(C)[nH]n2)nc(Sc2ccc(S(=O)(=O)Cc3cccc(F)c3F)cc2F)nc1N1CCN(CCN(C)C)CC1 | –
< 1 µM | COc1c(Nc2cc(C)[nH]n2)nc(Sc2ccc(NC(C)=O)cc2)nc1C1CCN(CCN2CCN(C)CC2)CC1 | –
< 1 µM | CCN(CC)c1nc(Sc2ccc(S(=O)(=O)CC)cc2)nc(Nc2cc(C)[nH]n2)c1OC | –
< 1 µM | COc1c(Nc2cc(C)[nH]n2)nc(Sc2ccc(S(=O)(=O)Cc3cccc(C(=O)N(C)C)c3F)cc2F)nc1N1CCOCC1 | –
< 1 µM | COc1c(Nc2cc(C)[nH]n2)nc(Sc2ccc(S(=O)(=O)Cc3ccccc3)cc2)nc1N1CCN(CCN2CCC(O)CC2)CC1 | –
< 1 µM | Cc1cc(Nc2nc(Sc3ccc(N(C)C)cc3)nc(N3CCCCC3)c2C)n[nH]1 | –
0.1 to 1 µM | Cc1cc(Nc2nc(Sc3ccc(NC(=O)C4CC4)cc3)nc(-n3ccnc3)c2C)n[nH]1 | –
< 1 µM | COc1c(Nc2cc(C)[nH]n2)nc(Sc2ccc(S(=O)(=O)Cc3cccc(I)c3F)cc2F)nc1N1CCOCC1 | –
< 1 µM | COc1c(Nc2cc(C)[nH]n2)nc(Sc2ccc(S(=O)(=O)Cc3c(F)c(F)cc(Cl)c3F)cc2F)nc1N1CCN(CCN(C)C)CC1 | –
< 1 µM | COc1c(Nc2cc(C)[nH]n2)nc(Sc2ccc(NC(C)=O)cc2)nc1N1CCN(C(N)=O)CC1 | –
< 1 µM | COc1c(Nc2cc(C)[nH]n2)nc(Sc2ccc(NC(C)=O)cc2)nc1N1CCN(C(=N)N)CC1 | –
< 1 µM | COc1c(Nc2cc(C)[nH]n2)nc(Sc2ccc(S(=O)(=O)Cc3cccc(C#N)c3F)cc2F)nc1N1CCOCC1 | –
< 1 µM | Cc1cc(Cc2nc(Sc3ccc(NC(=O)C4CCCC4)cc3)nc(N3CCN(CCN(C)C)CC3)c2C)n[nH]1 | –
< 1 µM | COc1c(Nc2cc(C)[nH]n2)nc(Sc2ccc(S(=O)(=O)Cc3ccccc3N(C)C)cc2)nc1N1CCN(CCN(C)C)CC1 | –
< 1 µM | COc1c(Nc2cc(C)[nH]n2)nc(Sc2ccc(S(=O)(=O)Cc3ccccc3)cc2)nc1N1CCN(Cc2ccccc2)CC1 | –
